Legend:
Format in all cases: in vivo
[1] = test system: muscle fibers of the Gastrocnemius (GC), Thiabialis (TA) and the long finger extensor muscle (EDL); assay: Muscle fibre morphometry (CSA, perimeter, Minimum Feret diameter) after C-Peptide administration in diabetic rats; conditions: 72 nmol/kg/24 h for 42 days
Experimental: The experimental tests carried out by the Applicant have shown that the administration of 72 nmol/kg/24 h of C-Peptide for 42 days improves the cross-sectional area (CSA), the perimeter and the Minimum Feret diameter of the muscle fibers of the Gastrocnemius (GC), Thiabialis (TA) and the long finger extensor muscle (EDL) in diabetic rats. Specifically, the mean CSA of the GC fibers decreased by 39.5% in the diabetic group, while only 6.6% in the rats of the C-peptide group. The CSA of the TA and EDL muscles was reduced, in the C-peptide group, by 10% and 11%, respectively, while a reduction of 65% and 45% occurred in the diabetic group, compared to the control animals. Similar results were obtained with the other parameters (perimeter and Minimum Feret diameter).

serum ubiquitin = assay: Serum ubiquitin in diabetic rats after C-peptide administration; conditions: 72 nmol/kg/24 h for 42 days
bone = assay: Micro-CT of trabecular bone in diabetic rats after C-peptide administration; conditions: 72 nmol/kg/24 h, compared to the diabetes only group (D-CTR)

Substance: C-peptide
- cross-sectional area (CSA), perimeter and Minimum Feret diameter of the muscle fibers of GC, TA and EDL [1]: improves
- mean CSA of the GC fibers decreased ([1]; Gastrocnemius, diabetic group decreased by 39.5%): 6.6%
- CSA of the EDL muscle reduced ([1]; compared to the control animals, diabetic group 45%): 11%
- CSA of the TA muscle reduced ([1]; compared to the control animals, diabetic group 65%): 10%
- serum ubiquitin, induced by diabetes (serum ubiquitin): prevents the increase
- trabecular spaces (bone; p=0.01): reduction
- trabecular thickness (bone; p=0.04): better

From EP4445909B1, “PHARMACEUTICAL FORMULATION CONSISTING OF C-PEPTIDE COMBINED WITH A BISPHOSPHONATE IN A SINGLE FORM AND ITS USE IN THE TREATMENT OF OSTEOSARCOPENIA” (Università Degli Studi Magna Graecia di Catanzaro, priority 2023, dated 2026)
